Key:
[1] = Tmax in CD-1 mouse at 10 mg/kg, po administered as single dose via gavage by LC-MS/MS analysis; format: ADME, organism-based; details: in vivo
[2] = Oral bioavailability in Beagle dog at 10 mg/kg administered as single dose via gavage by LC-MS/MS analysis; format: ADME, organism-based, Canis lupus familiaris; details: in vivo
[3] = Oral bioavailability in CD-1 mouse at 10 mg/kg administered as single dose via gavage by LC-MS/MS analysis; format: ADME, organism-based; details: in vivo
[4] = Cmax in CD-1 mouse at 10 mg/kg, po administered as single dose via gavage by LC-MS/MS analysis; format: ADME, organism-based; design: route oral, dose 10 mg/kg; details: in vivo
[5] = AUC in CD-1 mouse at 10 mg/kg, po administered as single dose via gavage by LC-MS/MS analysis; format: ADME, organism-based; design: dose 10 mg/kg; details: in vivo
[6] = Tmax in Beagle dog at 10 mg/kg, po administered as single dose via gavage by LC-MS/MS analysis; format: ADME, organism-based, Canis lupus familiaris; details: in vivo
[7] = Half life in CD-1 mouse at 10 mg/kg, po administered as single dose via gavage by LC-MS/MS analysis; format: ADME, organism-based; details: in vivo
[8] = Half life in Beagle dog at 10 mg/kg, po administered as single dose via gavage by LC-MS/MS analysis; format: ADME, organism-based, Canis lupus familiaris; details: in vivo
[9] = AUC in Beagle dog at 10 mg/kg, po administered as single dose via gavage by LC-MS/MS analysis; format: ADME, organism-based, Canis lupus familiaris; design: dose 10 mg/kg; details: in vivo
[10] = Cmax in Beagle dog at 10 mg/kg, po administered as single dose via gavage by LC-MS/MS analysis; format: ADME, organism-based, Canis lupus familiaris; design: route oral, dose 10 mg/kg; details: in vivo
[11] = system: K562; assay: Antiproliferative activity against human K562 cells measured after 96 hrs by MTT assay; format: functional, cell-based; details: K562, 96 h
[12] = system: MDA-MB-231; assay: Antitumor activity against human MDA-MB-231 cells xenografted in SCID mouse assessed as tumor growth at 150 mg/kg, po administered twice daily for 28 days measured post last dose relative to control; format: functional; details: time 28 day

COCCOc1cnc(Sc2cc(C)c(-c3csc(NC(=O)c4ccncc4)n3)c(C)c2)cn1.Cc1ccc(S(=O)(=O)O)cc1
Tmax [1]: 1 h | bioavailability [2]: 24.9% | bioavailability [3]: 77.4% | Cmax [4]: 8.13 µM | AUC [5]: 62.5 µM·h | Tmax [6]: 1 h | half-life [7]: 2.81 h | half-life [8]: 4.53 h | AUC [9]: 8.61 µM·h | Cmax [10]: 0.98 µM

Cc1cc(C)c(-c2csc(NC(=O)/C=C/c3ccc(C(C)(C)C)cc3)n2)c(C)c1
IC50 [11]: 790 nM

COCCOc1cnc(Sc2cc(C)c(-c3csc(NC(=O)c4ccncc4)n3)c(C)c2)cn1.Cl
bioavailability [3]: 84% | AUC [5]: 50.9 µM·h

COc1ccc(Oc2cc(C)c(-c3csc(NC(=O)c4ccncc4)n3)c(C)c2)cc1
T/C [12]: 50%

From ChEMBL document CHEMBL4680212, “Discovery of T-1101 tosylate as a first-in-class clinical candidate for Hec1/Nek2 inhibition in cancer therapy” (Eur J Med Chem, 2020)
